Series [1] concerns P. acnes strain ATCC 6919. In words: Kill curves / kill kinetics. The class given is cell-based, Propionibacterium acnes. The protocol:
Kill curves were generated by incubating P. acnes strain ATCC 6919 with formulation buffer solutions of XMP.629 or other antibiotics at concentrations of […]. Samples were removed and plated at the indicated time periods. After incubation, colonies were counted and the kill kinetics determined for each drug.
For example, at a higher concentration of 4 μg/mL, a rapid reduction of viable cells in 8 hours to undetectable levels was observed. […] In additional kill curve studies against P. acnes, XMP.629 was bactericidal within 6 hours of exposure.

The test system of the next series is CHO cells. In words: CHO chromosomal aberration test. The class given is cell-based, Chinese Hamster. The following applies: with and without metabolic activation. As to the method:
XMP.629 was next evaluated for activity to induce chromosomal aberrations in cultured CHO cells with and without an exogenous metabolic activation system. […] The assay design for these chromosomal aberration studies was based on OECD Guideline 473, updated and adopted Jul. 21, 1997. XMP.629 was provided as a 20.0 mg/mL stock in 10 mM sodium acetate buffer (pH 6). This solution and its dilutions prepared in cell culture grade water were dosed at 10% vol/vol (100 pUL/mL). The vehicle control cultures were treated with 100 μL/mL of cell culture grade water. In the initial assay, the treatment period was for 3.0 hours with and without metabolic activation at various concentrations of XMP.629 (30, 60, 120, 240, 480, 686, 980, 1400 and 2000 μg/mL) and cultures were harvested 20.0 hours from the initiation of treatment. Those cultures that were treated with 30, 60 and 120 pg/mL were analyzed for chromosomal aberrations. No significant increase in cells with chromosomal aberrations, polyploidy or endoreduplication was observed. In a confirmatory assay that included lower doses, the treatment period was 20 hours without metabolic activation (3.75, 7.5,15, 30, 60, 90, 120, 160, 200 and 240 μg/mL) and 3 hours with metabolic activation (15, 30, 60, 90, 120, 160, 200, 240, 300 and 360 μg/mL). […]

The subject of series [2] is eye of New Zealand White rabbits. The experiment in a line: Rabbit primary eye irritation test (Draize). The class given is in vivo. As to the method: XMP.629 was evaluated in a rabbit primary eye irritation test for potential ocular irritant and/or corrosive effects when topically applied to the eye of three New Zealand White rabbits.
All animals received 0.1 mL of a 2% solution XMP.629 in 10 mM sodium acetate instilled into the right conjunctival sac and left in place for 24 hours. The control eye was untreated. The treated eye was washed out with 100 mL of lukewarm water for one to two minutes at approximately 24 hours post-dose. The treated and control eyes were examined at approximately 1, 24, 48, and 72 hours post-dose and on days 5, 8, and 15 for ocular irritation using the standard Draize scoring system (Draize et al., 1944, supra). Sodium fluorescein and ultraviolet light was used to examine for possible corneal injury.

For series [3], the system named is conscious telemetered cynomolgus monkeys. In words: Cardiovascular safety pharmacology test, intravenous infusion, telemetry. Format: in vivo, cynomolgus monkey. The protocol: This safety pharmacology test was performed to assess the possible cardiovascular effects of XMP.629 when administered via intravenous infusion. The test was an acute experiment to identify single-dose-induced side-effects as indicated, for example, in the Guideline for General Pharmacology Studies (Japan Ministry of Health and Welfare PAB/NND Notification No. 4, Jan. 29, 1995, the disclosure of which is incorporated herein by reference).
A telemetry device/transmitter (Data Sciences, St. Paul, Minn.) was surgically implanted in the subcutaneous pocket over the mid-abdominal region into the test monkeys. The blood pressure catheter of the telemetry device was run sub-cutaneously to the left groin region and inserted into the left femoral artery, with the catheter tip placed into the abdominal aorta. In addition, electrocardiogram leads were sub-cutaneously tunneled to the appropriate anatomical regions (i.e. negative lead paced at the base of the right side of the neck and the positive lead placed within the 5th intercostals space on the left side of the thoracic cage, near the sternum).
Intravenous administration of XMP.629 was given to conscious cynomolgus primates (four males) via telemetry systems in a series of 4 acute experiments, in which escalating doses were administered over four days, with a 3 to 27-day washout period between doses. Doses were administered over a two-hour period, at a rate of 2 mL/kg/hr. The vehicle, 10 mM sodium acetate buffer, was administered on Day 0, and XMP.629 at dose levels of 5, 10, and 20 mg/kg/2 hrs on days 4, 7, and 34, respectively. The infused volume per dose was calculated using the most recent body weight measurements.
Viability checks were performed twice daily on the animals. Body weights were obtained from the animals on the day of surgery and one or two days prior to each dose. Cardiovascular assessments and body temperature measurements were collected radiotelemetrically using the implanted telemetry device/transmitter for one 24 hour period prior to the Day 0 dosing session at the same frequency/periods collected on the days of dosing. On each day of dosing, the effect of XMP.629 on various physiological parameters, such as blood pressure waveform, systolic pressure, diastolic pressure, mean pressure, ECG (axial lead) waveform, heart rate, body temperature, QA interval, P-R interval, QRS interval, QT interval, R—R interval, and QTC interval, was observed two hours before the dosing period, every five minutes for 120 minutes during each infusion period, and for 22 hours after termination of infusion (once every five minutes for one hour and then once every 30 minutes for the remaining 21 hours). […]

In series [4] the test system is Enterococcus faccium (VRE). The following applies: Enterococcus faccium 700221 (VRE).
The next series deals with Macrococcus caseolyticus. As to conditions: Macrococcus caseolyticus 29750.
Another series deals with Propionibacterium acnes. As to conditions: Propionibacterium acnes 6919.
Another series concerns E. coli. As to conditions: for MBC: agent alone.

Values after ≈ are worked out from the molar mass of the structure shown. Where two headings read alike, the source gives them in different places. Non-standard residues stand in square brackets, D forms with d. Residues, ends and D or L forms follow the SMILES beside them. d1Nal = N[C@H](Cc1cccc2ccccc12)C(=O)O Where only a bound is given, the exact number is not on record here.

The results in this text go back to patent publication US20050148495A1, “Methods and materials including for treating acne” (priority 2003, published 2005).

Broadly, the MBC is the smallest concentration meeting the test's criterion for killing. The low end stands for more potent killing, the high end for less potent killing.

In the case of `CC(C)C[C@@H](NC(=O)[C@H](N)CCCCN)C(=O)N[C@H](Cc1ccccc1)C(=O)N[C@H](CCCNC(=N)N)C(=O)N[C@H](Cc1cccc2ccccc12)C(=O)N[C@H](CCC(N)=O)C(=O)N[C@H](C)C(=O)N[C@H](CCCCN)C(=O)N[C@H](Cc1cccc2ccccc12)C(N)=O` [XMP.629, NH2-lys-leu-phe-arg-(3-(1-naphthyl)-ala)-gln-ala-lys-(3-(1-naphthyl)-ala)-CONH2] (H-[dK][dL][dF][dR][d1Nal][dQ][dA][dK][d1Nal]-NH2), in series [1] (4 μg/mL), the “time to reduction of viable cells to undetectable levels” value came out at 8 h. In series [1] (additional kill curve studies against P. acnes), the “exposure time until bactericidal” value was at most 6 h. In addition, the “culture at 19 hours” value in series [1] (all concentrations tested) is “no detected organisms”. In addition, in series [1] (depending on dose), the “contact time to kill the microorganisms” value is on record as “up to 10 hours”. Besides, in the series on CHO cells, the “chromosomal aberrations in CHO cells” value is “negative”. Moreover, the “ocular irritation, overall” value in series [2] (2% XMP.629 in 10 mM sodium acetate solution) is on record as “mildly irritating”. Also, the corneal opacity entry in series [2] (2% solution in 10 mM sodium acetate, any time point) is “no effects on corneal opacity”. Moreover, the “iris, average scores” value in series [2] (2% solution, 48 hours post-instillation) is given as “less than 1”. In series [3] (20 mg/kg/2 hrs), the “Prolongation in prothrombin and activated partial thromboplastin times with decreases in fibrinogen” value is 2 of 4 animals. Besides, the “heart rate, QA, P-R, QRS, and R-R intervals” value in series [3] (5, 10, or 20 mg/kg/2 hrs) was “no effects”. Also, the cardiac findings entry in series [3] (10 or 20 mg/kg/2 hrs) is “ventricular extrasystoles and premature ventricular beats”. In addition, the “intravenous infusion dose with no adverse, related-effect” value in series [3] (cynomolgus monkey, in vivo, iv) is on record as 5 mg/kg/2 hrs. In addition, the “Minimum Inhibitory Concentrations” value in series [4] was 2.00 µg/mL; in the series on Macrococcus caseolyticus it was 2.00 µg/mL; with Propionibacterium acnes, 1.00 µg/mL. For the same compound, the MBC with E. coli (E. coli 706U2-1081) was determined as 16 µg/mL (≈ 12.5 µM); in the series on E. coli (E. coli 4104 LF), 8 µg/mL (≈ 6.23 µM). Further, the “XMP.629 MBC” value in the series with E. coli (E. coli 4104 LF, XMP.629 alone) came out at 16 µg/mL.
